Experimental data from patent US20220073554A1, “LINCOSAMIDE ANTIBIOTICS AND USES THEREOF” (President and Fellows of Harvard College, priority 2017, published 2022).
≈ marks a conversion by molar mass, not a printed value. Where two headings read alike, the source gives them in different places.

Key:
Type in all cases: cell-based
S. pyogenes ATCC 19615 = assay: MIC against S. pyogenes ATCC 19615; conditions: Streptococcus pyogenes, ATCC19615; S. pyogenes ATCC 19615; read-out: MIC
K. pneumoniae ATCC 10031 = assay: MIC against K. pneumoniae ATCC 10031; conditions: Klebsiella pneumoniae, ATCC10031; K. pneumoniae ATCC 10031; read-out: MIC
[1] = system: S. aureus MP-549 msr(a) USA 300; assay: MIC against S. aureus MP-549 msr(a) USA 300; conditions: Staphylococcus aureus, USA300, S. aureus MP-549 msr(a) USA 300
E. faecalis ATCC 29212 = assay: MIC against E. faecalis ATCC 29212; conditions: Enterococcus faecalis, ATCC29212, read-out: MIC
S. pneumoniae ATCC 49619 = assay: MIC against S. pneumoniae ATCC 49619; conditions: Streptococcus pneumoniae, ATCC49619
E. coli ATCC 25922 = assay: MIC against E. coli ATCC 25922; conditions: Escherichia coli, ATCC25922
S. aureus ATCC 29213 = assay: MIC against S. aureus ATCC 29213
E. coli ATCC 15922 = assay: MIC against E. coli ATCC 15922; conditions: Escherichia coli, ATCC15922; E. coli ATCC 15922; read-out: MIC
E. coli MP-9 ΔTolC = assay: MIC against E. coli MP-9 ΔTolC; conditions: Escherichia coli
[2] = system: E. faecalis MMX 847 Macrolide-Resistant; assay: MIC against E. faecalis MMX 847 Macrolide-Resistant; conditions: Enterococcus faecalis; E. faecalis MMX 847 Macrolide-Resistant (MacRes); read-out: MIC
H. influenzae ATCC 49247 = assay: MIC against H. influenzae ATCC 49247; conditions: Haemophilus influenzae, ATCC49247
S. aureus MMX 3035 cErmA = assay: MIC against S. aureus MMX 3035 cErmA; conditions: Staphylococcus aureus, MMX3035CERMA; S. aureus MMX 3035 cErmA; read-out: MIC
[3] = system: S. pyogenes MMX 946 Macrolide-Resistant; assay: MIC against S. pyogenes MMX 946 Macrolide-Resistant; conditions: Streptococcus pyogenes; S. pyogenes MMX 946 Macrolide-Resistant (MacRes); read-out: MIC
S. aureus BAA 977 iErmA = assay: MIC against S. aureus BAA 977 iErmA; conditions: Staphylococcus aureus, BAA977
[4] = system: E. coli MP-74 LptD mutant; assay: MIC against E. coli MP-74 LptD mutant; conditions: Escherichia coli
[5] = S. pneumoniae ATCC 49619, read-out: MIC
[6] = E. coli ATCC 25922, read-out: MIC
[7] = Staphylococcus aureus, ATCC29213, S. aureus ATCC 29213, read-out: MIC
[8] = H. influenzae ATCC 49247, read-out: MIC
[9] = Staphylococcus aureus, ATCC29213

SMILES | MIC (S. pyogenes ATCC 19615) [µg/mL] | MIC [1] [µg/mL] | MIC (E. faecalis ATCC 29212) [µg/mL] | MIC (S. pneumoniae ATCC 49619; [5]) [µg/mL] | MIC (E. coli ATCC 25922; [6]) [µg/mL] | MIC (S. aureus ATCC 29213; [7]) [µg/mL] | MIC (E. coli MP-9 ΔTolC) [µg/mL] | other results
COc1ccc(C2=CCO[C@@H]3[C@H](CN[C@@H]3C(=O)N[C@H]([C@H](C)Cl)[C@H]3OC(SC)[C@H](O)[C@H](O)C3O)C2)cc1 (stereo partly drawn) [FSA-511020] | ≤ 0.06 | 1 (≈ 1.84 µM) | 4 (≈ 7.37 µM) | ≤ 0.06 | > 64 | 0.5 (≈ 0.921 µM) |  | MIC (K. pneumoniae ATCC 10031): > 64 µg/mL
CSC1O[C@H]([C@H](NC(=O)[C@H]2NC[C@@H]3CC(c4ccc(C#N)cc4)=CCO[C@H]32)[C@H](C)Cl)C(O)[C@@H](O)[C@H]1O (stereo partly drawn) [FSA-511033] | ≤ 0.06 | 1 (≈ 1.86 µM) | 2 (≈ 3.72 µM) | ≤ 0.06 | > 64 | 0.5 (≈ 0.929 µM) |  | 
CSC1O[C@H]([C@H](NC(=O)[C@H]2NC[C@@H]3CC(c4ccc(C)cc4)CCO[C@H]32)[C@H](C)Cl)C(O)[C@@H](O)[C@H]1O (stereo partly drawn) [FSA-511044] | ≤ 0.06 | 0.5 (≈ 0.945 µM) | 2 (≈ 3.78 µM) |  |  | 0.23 (≈ 0.435 µM) |  | MIC (E. coli ATCC 15922): > 64 µg/mL; MIC (S. pneumoniae ATCC 49619): 0.5 µg/mL (≈ 0.945 µM)
CSC1O[C@H]([C@H](NC(=O)[C@H]2NC[C@@H]3C[C@@H](c4ccc(C#N)cc4)CCO[C@H]32)[C@H](C)Cl)C(O)[C@@H](O)[C@H]1O (stereo partly drawn) [FSA-511046] | ≤ 0.06 | 0.5 (≈ 0.926 µM) | 1 (≈ 1.85 µM) | ≤ 0.06 |  |  | 8 (≈ 14.8 µM) | MIC (E. coli ATCC 15922): > 64 µg/mL; MIC (S. aureus ATCC 29213; S. aureus ATCC 29213): 1 µg/mL (≈ 1.85 µM)
CSC1O[C@H]([C@H](NC(=O)[C@H]2NC[C@@H]3C=C(c4ccc(F)cc4F)CCO[C@@H]23)[C@H](C)Cl)C(O)[C@@H](O)[C@H]1O (stereo partly drawn) [FSA-511072] | 0.95 (≈ 1.73 µM) | 1 (≈ 1.82 µM) | 4 (≈ 7.29 µM) |  | > 64 | 1 (≈ 1.82 µM) |  | MIC [2]: > 64 µg/mL; MIC (H. influenzae ATCC 49247; [8]): > 64 µg/mL; MIC (S. aureus MMX 3035 cErmA): > 64 µg/mL; MIC [3]: > 64 µg/mL; MIC (S. aureus BAA 977 iErmA): 1 µg/mL (≈ 1.82 µM)
CSC1O[C@H]([C@H](NC(=O)[C@H]2NC[C@@H]3C=C(c4cc(F)cc(F)c4)CCO[C@@H]23)[C@H](C)Cl)C(O)[C@@H](O)[C@H]1O (stereo partly drawn) [FSA-511074] | 0.5 (≈ 0.911 µM) | 1 (≈ 1.82 µM) | 4 (≈ 7.29 µM) |  | > 64 | 2 (≈ 3.64 µM) |  | MIC [2]: > 64 µg/mL; MIC (H. influenzae ATCC 49247; [8]): > 64 µg/mL; MIC (S. aureus MMX 3035 cErmA): > 64 µg/mL; MIC [3]: > 64 µg/mL; MIC (S. aureus BAA 977 iErmA): 2 µg/mL (≈ 3.64 µM)
CSC1O[C@H]([C@H](NC(=O)[C@H]2NC[C@@H]3C[C@@H](C4CCNCC4)CCO[C@H]32)[C@H](C)Cl)C(O)[C@@H](O)[C@H]1O (stereo partly drawn) [FSA-512011] | 4 (≈ 7.66 µM) | 8 (≈ 15.3 µM) |  | 1 (≈ 1.92 µM) |  | 8 (≈ 15.3 µM) | > 256 | MIC (H. influenzae ATCC 49247): > 256 µg/mL; MIC (E. coli ATCC 25922): > 256 µg/mL; MIC [4]: > 256 µg/mL
CSC1O[C@H]([C@H](NC(=O)[C@H]2NC[C@@H]3C[C@@H](C4CCN(C)CC4)CCO[C@H]32)[C@H](C)Cl)C(O)[C@@H](O)[C@H]1O (stereo partly drawn) [FSA-512012] | 4 (≈ 7.46 µM) | 8 (≈ 14.9 µM) |  | 1 (≈ 1.87 µM) |  | 8 (≈ 14.9 µM) | > 256 | MIC (H. influenzae ATCC 49247): > 256 µg/mL; MIC (E. coli ATCC 25922): > 256 µg/mL; MIC [4]: > 256 µg/mL
CSC1O[C@H]([C@H](NC(=O)[C@H]2NC[C@@H]3C=C(c4ccc(C)cc4)CCO[C@@H]23)[C@H](C)Cl)C(O)[C@@H](O)[C@H]1O (stereo partly drawn) [FSA-512075] |  |  | 2 (≈ 3.79 µM) |  | > 256 | 0.5 (≈ 0.949 µM) |  | 
CSC1O[C@H]([C@H](NC(=O)[C@H]2NC[C@@H]3C[C@@H](c4ccc(C)cc4)CCO[C@H]32)[C@H](C)Cl)C(O)[C@@H](O)[C@H]1O (stereo partly drawn) [FSA-512079b] | ≤ 0.12 | 0.5 (≈ 0.945 µM) | 1 (≈ 1.89 µM) |  | > 128 |  | 8 (≈ 15.1 µM) | MIC (S. aureus ATCC 29213; [9]): 0.5 µg/mL (≈ 0.945 µM)
CSC1O[C@H]([C@H](NC(=O)[C@H]2NC[C@@H]3C[C@H](c4ccc(C)cc4)CCO[C@H]32)[C@H](C)Cl)C(O)[C@@H](O)[C@H]1O (stereo partly drawn) [FSA-512079c] | ≤ 0.12 | 0.5 (≈ 0.945 µM) | 2 (≈ 3.78 µM) |  | > 128 |  | 8 (≈ 15.1 µM) | MIC (S. aureus ATCC 29213; [9]): 0.5 µg/mL (≈ 0.945 µM)
COc1ccc([C@@H]2CCO[C@@H]3[C@H](CN[C@@H]3C(=O)N[C@H]([C@H](C)Cl)[C@H]3OC(SC)[C@H](O)[C@H](O)C3O)C2)cc1 (stereo partly drawn) [FSA-512080c] |  |  |  |  |  |  |  | MIC (H. influenzae ATCC 49247; [8]): 37 µg/mL (≈ 67.9 µM)
